Laboratory results taken from ChEMBL document CHEMBL1201862, “PubChem BioAssay data set” (2004).
Active and inactive are the calls of the source.

Assays:
[1] = biological target: Fructose-bisphosphate aldolase (Mycobacterium tuberculosis, UniProt P9WQA3); test: Fluorescence-based biochemical high throughput dose response assay for inhibitors of the fructose-bisphosphate aldolase (FBA) of M. tuberculosis.; type: functional
[2] = biological target: T1, Trace amine-associated receptor 1 (Homo sapiens, UniProt Q96RJ0); test: Fluorescence-based cell-based high throughput dose response assay to identify agonists of the human trace amine associated receptor 1 (TAAR1).; type: functional
T1 sequence (Q96RJ0 whole entry): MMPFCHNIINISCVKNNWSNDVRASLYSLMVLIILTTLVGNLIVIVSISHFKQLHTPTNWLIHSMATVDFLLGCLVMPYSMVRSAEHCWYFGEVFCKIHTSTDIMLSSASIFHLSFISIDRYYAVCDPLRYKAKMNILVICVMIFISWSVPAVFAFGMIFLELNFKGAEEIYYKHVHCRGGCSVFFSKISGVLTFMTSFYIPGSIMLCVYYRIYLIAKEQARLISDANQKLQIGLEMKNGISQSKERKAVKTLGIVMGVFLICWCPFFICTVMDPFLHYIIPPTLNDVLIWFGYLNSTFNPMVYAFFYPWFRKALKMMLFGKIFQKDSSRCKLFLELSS

[3] = cells; type: functional, cell-based
[4] = biological target: T1, Trace amine-associated receptor 1; test: Counterscreen for agonists of the human trace amine associated receptor 1 (hTAAR1): Fluorescence-based cell-based high throughput dose response assay to identify hTAAR1 agonist that also desensitize TAAR1 receptor response.; type: functional
[5] = cells; type: functional, cell-based; remark: listed apart in the source
[6] = biological target: T2, DNA repair and recombination protein RAD54-like (Homo sapiens, UniProt Q92698); test: inhibitors of human RAD54 branch migration, confirmation, biochemical, fluorescence, cherry-picked samples, dose series (AID 651657); type: functional
T2 sequence (Q92698 whole entry): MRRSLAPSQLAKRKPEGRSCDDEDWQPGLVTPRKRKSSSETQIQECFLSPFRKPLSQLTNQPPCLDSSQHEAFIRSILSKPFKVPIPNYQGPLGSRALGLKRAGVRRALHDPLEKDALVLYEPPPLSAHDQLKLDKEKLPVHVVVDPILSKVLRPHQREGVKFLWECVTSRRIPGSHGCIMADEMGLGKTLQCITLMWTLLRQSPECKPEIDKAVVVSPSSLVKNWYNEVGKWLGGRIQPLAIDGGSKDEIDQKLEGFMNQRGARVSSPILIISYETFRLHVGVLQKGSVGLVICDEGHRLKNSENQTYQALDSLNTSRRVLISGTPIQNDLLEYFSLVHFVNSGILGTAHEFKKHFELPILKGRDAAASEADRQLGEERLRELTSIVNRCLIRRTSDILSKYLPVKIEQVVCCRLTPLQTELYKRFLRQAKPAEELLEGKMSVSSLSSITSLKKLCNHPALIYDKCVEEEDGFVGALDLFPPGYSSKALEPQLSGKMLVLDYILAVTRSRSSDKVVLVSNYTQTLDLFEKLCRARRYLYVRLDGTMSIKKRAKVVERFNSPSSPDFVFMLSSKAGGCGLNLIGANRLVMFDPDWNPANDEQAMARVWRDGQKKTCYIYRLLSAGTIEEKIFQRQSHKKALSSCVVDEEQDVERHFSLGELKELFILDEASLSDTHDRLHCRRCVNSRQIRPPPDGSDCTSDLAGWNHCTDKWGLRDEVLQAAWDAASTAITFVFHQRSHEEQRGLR

[7] = biological target: DNA repair protein RAD52 homolog (Homo sapiens, UniProt P43351); type: functional, biochemical
[8] = HEK293T cytotoxicity, dose response, cytotoxicity control for miR-122 modulator project, cell-based, inhibitor set, cherry-pick, set 2 (AID 720697); type: functional
[9] = cytotoxicity toward NIH3T3 fibroblasts, dose response, counter-screen, cell-based, ATP luminescence, mouse fibroblasts (AID 2010); type: functional;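 note: cells exposed to compound for about 90 hours before reading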
[10] = inhibitors of intracellular T. cruzi replication, confirmation, NIH3T3 host cells, beta-gal luminescence (AID 2044); type: functional, cell-based;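 note: intracellular parasites grown in NIH/3T3 mouse fibroblasts as host cells; luminescent beta-galactosidase reporter signal from transgenic T. cruzi replicating inside host cells; inhibitors lower the luminescence signal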
[11] = biological target: Prothrombin (Homo sapiens, UniProt P00734); test: Thrombin 1536 HTS Dose Response Confirmation. [Related pubchem assays: 1046 (Thrombin 1536 HTS; hits were confirmed in this assay)]; type: functional
[12] = LGR2 antagonists, dose response, cell-based, HEK293, CRE-luciferase reporter, cherry pick, set 2 (AID 743343); type: functional;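 note: transfected cells were stimulated with diluted bursicon conditioned medium after compound addition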
[13] = A549 cell cytotoxicity, dose response, cytotoxicity control, plate reader, cherry-pick, antagonist series (AID 743412); type: functional, cell-based
[14] = test system: H9c2; test: cells; type: functional, cell-based; conditions: Rattus norvegicus, H9c2, Myocardium;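 note: confirmatory concentration-response retest of ultra-high-throughput screening hits for modulation of myocardial damage; cell death induced by hydrogen peroxide oxidative stress; compound pretreatment for 60 min then peroxide exposure for 2 h; potency is for protecting the cells against peroxide damage rather than for killing them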
[15] = HepG2 cell cytotoxicity, dose response, cytotoxicity control, plate reader, cherry-pick, antagonist series (AID 743416); type: functional, cell-based
[16] = MC4R antagonists, dose response, counter-screen for LGR2 antagonist project, cell-based, plate reader, cherry pick (AID 743444); type: functional;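 note: transfected HEK 293 cells stimulated with alpha-MSH peptide; potency of inhibitors of the alpha-MSH evoked signal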
[17] = CEM21 lymphoblast cell cytotoxicity, dose response, cytotoxicity control for viral fusion inhibitor project, CellTiter-Glo luminescence, cherry-picked (AID 652042); type: functional, cell-based;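 note: potency for signal decrease meaning cytotoxicity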

DNA repair protein RAD52 homolog, sequence (P43351 whole entry): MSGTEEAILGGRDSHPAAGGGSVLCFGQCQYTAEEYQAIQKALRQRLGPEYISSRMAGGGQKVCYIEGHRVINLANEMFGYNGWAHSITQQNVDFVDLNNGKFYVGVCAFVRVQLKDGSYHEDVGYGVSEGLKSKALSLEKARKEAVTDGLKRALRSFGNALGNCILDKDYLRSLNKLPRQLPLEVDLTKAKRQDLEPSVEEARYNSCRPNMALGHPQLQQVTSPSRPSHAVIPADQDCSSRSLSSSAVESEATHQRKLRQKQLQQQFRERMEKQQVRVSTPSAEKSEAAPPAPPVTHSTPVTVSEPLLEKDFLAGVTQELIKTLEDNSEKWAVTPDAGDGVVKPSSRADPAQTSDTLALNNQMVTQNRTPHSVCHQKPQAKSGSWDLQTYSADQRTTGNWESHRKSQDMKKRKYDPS
Fructose-bisphosphate aldolase, sequence (P9WQA3 whole entry): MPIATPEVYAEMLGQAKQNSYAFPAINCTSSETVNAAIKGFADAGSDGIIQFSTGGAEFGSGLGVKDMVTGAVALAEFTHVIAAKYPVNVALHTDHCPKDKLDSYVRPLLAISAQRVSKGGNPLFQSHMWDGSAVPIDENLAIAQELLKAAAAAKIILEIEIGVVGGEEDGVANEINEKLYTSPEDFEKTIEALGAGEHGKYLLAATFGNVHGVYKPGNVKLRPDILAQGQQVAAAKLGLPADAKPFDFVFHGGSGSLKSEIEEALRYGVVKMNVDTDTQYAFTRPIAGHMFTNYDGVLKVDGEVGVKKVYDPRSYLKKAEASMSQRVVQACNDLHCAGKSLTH

CN(C)c1ccc(-c2ccnc3c2CC(C)(C(=O)NCc2cccs2)O3)cc1 (centres undefined)
IC50 [1]: 0.56 µM (active)

Cc1ccccc1C(=O)N[C@H](C(=O)N1CCC[C@H]1C(=O)NCCc1ccccc1Cl)c1ccccc1
EC50 [2]: 6.12 µM (active)
IC50 [3]: > 29.9 µM (inactive)
IC50 [4]: 7.72 µM (active)
EC50 [5]: > 29.9 µM (inactive)

COc1ccc(-c2cc3nc(NCCN4CCCC4)n(C)c(=O)c3s2)cc1OC
AC50 [6]: 11.6 µM (active)
AC50 [7]: 2.43 µM (active)

CCOC(=O)c1ccc(NC(=O)c2ccc(CN3CCOCC3)cc2)cc1
AC50 [8]: 19.3 µM (active)

CCCN(CCC)CCCNC(=S)Nc1ccc2nc(N3CCN(C)CC3)cc(C)c2c1
AC50 [6]: 31.9 µM (active)
EC50 [9]: > 60 µM (not active)
EC50 [10]: 2.24 µM (active)
AC50 [7]: 5.96 µM (active)

COc1cc(C(=O)Nc2nc(-c3cccs3)cs2)cc(OC)c1OC
IC50 [11]: 2.64 µM (active)
AC50 [12]: 23.3 µM (active)
AC50 [13]: > 52 µM (inactive)
IC50 [14]: > 79 µM (inactive)
AC50 [15]: > 52 µM (inactive)
AC50 [16]: 27.7 µM (active)

CC(NNC(=S)N1CCCCCC1)c1ccc2ccccc2n1 (centres undefined)
AC50 [17]: 1.59 µM (active)
